Patent US12172969B2 (EVOFEM BIOSCIENCES, INC., priority 2018, dated 2024)

Assays:
cDNA-expressed CYP2C8 = target: T1, cDNA-expressed CYP2C8 (Homo sapiens, UniProt P10632); assay: Metabolism by cDNA-expressed CYP2C8, parent remaining; conditions: 10 μM; for depletion by cDNA-expressed CYP2C8: 120 minutes
T1 sequence (P10632 1-490): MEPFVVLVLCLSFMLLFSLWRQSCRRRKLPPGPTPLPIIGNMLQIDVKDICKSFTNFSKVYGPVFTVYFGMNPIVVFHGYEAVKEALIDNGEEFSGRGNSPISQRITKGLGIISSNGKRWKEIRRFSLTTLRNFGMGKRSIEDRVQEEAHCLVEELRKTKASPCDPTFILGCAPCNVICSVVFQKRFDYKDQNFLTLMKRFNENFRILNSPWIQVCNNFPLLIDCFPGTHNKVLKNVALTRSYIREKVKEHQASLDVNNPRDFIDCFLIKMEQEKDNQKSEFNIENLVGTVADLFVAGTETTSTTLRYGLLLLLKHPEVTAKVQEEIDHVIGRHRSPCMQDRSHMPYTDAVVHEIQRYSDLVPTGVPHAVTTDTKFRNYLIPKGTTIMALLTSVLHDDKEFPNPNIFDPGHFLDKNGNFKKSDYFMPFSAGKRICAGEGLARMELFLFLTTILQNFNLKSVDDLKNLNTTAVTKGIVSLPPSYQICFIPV
Method: (§1) At two time points (0 and 120 min), the reaction was stopped by removing an aliquot and combining it with an equal volume of cold acetonitrile containing an internal standard (labetalol) and placement on ice. Samples were centrifuged to pellet the protein and the supernatant was frozen at −20° C. for subsequent analysis by LC-MS/MS.
(§2) Protein concentrations were constant for all isoforms within an experiment and standardized by the addition of control microsomes. Incubations were performed in duplicate. Incubations with vector control enzyme preparations and without enzyme source were included as negative controls.
(§3) The fraction of parent compound remaining compared to 0 min was determined based on peak area ratio (analyte/internal standard).

cDNA-expressed CYP2C9 = cDNA-expressed CYP2C9 (Homo sapiens, UniProt P11712); assay: Metabolism by cDNA-expressed CYP2C9, parent remaining; conditions: 10 μM; for depletion by cDNA-expressed CYP2C9: 120 minutes
Method: as §1, §2, §3

[1] = in vivo; cited from earlier work
[2] = test system: cDNA-expressed CYP1A2, CYP2A6, CYP2B6, CYP2C8, CYP2C9, CYP2C19, CYP2D6, CYP2E1, CYP3A4, and CYP3A5; assay: Metabolism by cDNA-expressed human CYP enzymes (all isoforms), parent remaining by LC-MS/MS; conditions: 1.0 μM and 10 μM, 120 minutes incubation, 37° C., compared to 0 min
Method: as §1, §2
All other positive controls were assayed at one concentration in duplicate in accordance with the methods described above. The percent of parent remaining at the end of the incubation was compared to 0 min based on the peak area ratio of the substrate and internal standard.
as §3

Sequence of cDNA-expressed CYP2C9 (P11712 whole entry): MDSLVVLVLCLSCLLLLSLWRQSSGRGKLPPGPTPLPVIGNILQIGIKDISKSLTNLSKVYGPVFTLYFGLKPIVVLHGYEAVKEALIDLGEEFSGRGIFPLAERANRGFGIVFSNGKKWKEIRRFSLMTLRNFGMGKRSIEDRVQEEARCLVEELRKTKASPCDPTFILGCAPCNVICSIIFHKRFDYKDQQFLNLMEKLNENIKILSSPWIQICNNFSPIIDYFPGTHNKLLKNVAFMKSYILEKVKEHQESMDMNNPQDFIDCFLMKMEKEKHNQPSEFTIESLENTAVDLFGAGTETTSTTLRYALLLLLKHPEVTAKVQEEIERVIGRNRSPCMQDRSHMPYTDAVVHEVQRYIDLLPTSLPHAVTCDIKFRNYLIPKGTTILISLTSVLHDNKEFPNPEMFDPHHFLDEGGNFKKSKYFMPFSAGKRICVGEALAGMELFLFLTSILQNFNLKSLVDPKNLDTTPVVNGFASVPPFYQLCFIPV

percent of parent remaining (cDNA-expressed CYP2C8; human, 2 h, pH 7.4) [%]	percent of parent remaining (cDNA-expressed CYP2C9; human, 2 h, pH 7.4) [%]	Compound	excreted intact in the urine [1] [%]	average percent of parent compound remaining for all isoforms and concentrations [2]	depletion by cDNA-expressed CYP2C8 (cDNA-expressed CYP2C8)	depletion by cDNA-expressed CYP2C9 (cDNA-expressed CYP2C9)
82	79	Cc1ncc([N+](=O)[O-])n1CC(C)O (stereo not drawn) [secnidazole, 1-(2-methyl-5-nitro-1H-imidazol-1-yl) propan-2-ol, reference compound]	50			
		α,2-dimethyl-5-nitro-1H-imidazole-1-ethanol-d3 [secnidazole-d3]		greater than 96%	did not demonstrate any depletion	did not demonstrate any depletion
		α,2-dimethyl-5-nitro-1H-imidazole-1-ethanol-d6 [secnidazole-d6]		less than 100%	did not demonstrate any depletion	did not demonstrate any depletion
